# In patent publication US12234216B2, “Isotopologues salts, crystalline forms, stereoisomers, of methylone and ethylone and methods of use thereof” (Terran Biosciences Inc., priority 2021, dated 2025):
# Test: Metabolic stability in human liver microsomes
# Type: in vitro ADME
# Settings: for difference in half-life and intrinsic clearance compared with the corresponding non-deuterated methylone hydrochloride: human liver microsomes; for CLint (μL/min/mg protein): human liver microsomes 0.5 mg/mL, 1 μM compound, NADPH, 0-45 min
# Method: Pooled liver microsomes are purchased from a reputable commercial supplier. Microsomes are stored at […] prior to use. Microsomes (final protein concentration 0.5 mg/mL), 0.1 M phosphate buffer pH 7.4 and test compound (final substrate concentration 1 μM; final DMSO concentration 0.25%) are preincubated at 37° C. prior to the addition of NADPH (final concentration 1 mM) to initiate the reaction. A minus cofactor control incubation is included for each compound tested where 0.1 M phosphate buffer pH 7.4 is added instead of NADPH (minus NADPH). Two control compounds are included with each species. All incubations are performed singularly for each test compound. Each compound is incubated for 0, 5, 15, 30 and 45 min. The control (minus NADPH) is incubated for 45 min only. The reactions are stopped by transferring incubate into acetonitrile at the appropriate time points, in a 1:3 ratio. The termination plates are centrifuged at 3,000 rpm for 20 min at 4° C. to precipitate the protein.
# From a plot of ln peak area ratio (compound peak area/internal standard peak area) against time, the gradient of the line is determined. Subsequently, half-life and intrinsic clearance are calculated using the equations below: Elimination rate constant (k)=(−gradient) Half-life (t½)(min)=0.693/k Intrinsic clearance (CLint)(μL/min/mg protein)=V×0.693/t½ where V=Incubation volume (μL)/Microsomal protein (mg)
# Relevant control compounds were assessed, ensuring intrinsic clearance values fall within the specified limits (if available).
SMILES,difference in half-life and intrinsic clearance compared with the corresponding non-deuterated methylone hydrochloride,CLint (μL/min/mg protein)
"Cl.[2H]C1([2H])Oc2ccc(C(=O)[C@H](C)NC)cc2O1 [(S)-Methylone-d2 hydrochloride, (S)-1-(benzo[d][1,3]dioxol-5-yl-2,2-d2)-2-(methylamino)propan-1-one hydrochloride]",differences in half-life and intrinsic clearance,
"Cl.[2H]C([2H])([2H])NC(C)C(=O)c1ccc2c(c1)OCO2 (racemic) [(rac)-Methylone-d3 hydrochloride, 1-(benzo[d][1,3]dioxol-5-yl)-2-((methyl-d3)amino)propan-1-one HCl]",differences in half-life and intrinsic clearance,
"Cl.[2H]C([2H])([2H])N[C@@H](C)C(=O)c1ccc2c(c1)OC([2H])([2H])O2 [(S)-Methylone-d5 hydrochloride, (S)-1-(benzo[d][1,3]dioxol-5-yl-2,2-d2)-2-((methyl-d3)amino)propan-1-one hydrochloride]",most significant difference in half-life and intrinsic clearance,9.07
"Cl.[2H]C([2H])([2H])NC(C)C(=O)c1ccc2c(c1)OC([2H])([2H])O2 (racemic) [(rac)-Methylone-d5 hydrochloride, 1-(benzo[d][1,3]dioxol-5-yl-2,2-d2)-2-((methyl-d3)amino)propan-1-one HCl]",most significant difference in half-life and intrinsic clearance,
"Cl.[2H]C([2H])([2H])N[C@H](C)C(=O)c1ccc2c(c1)OC([2H])([2H])O2 [(R)-Methylone-d5 hydrochloride, (R)-1-(benzo[d][1,3]dioxol-5-yl-2,2-d2)-2-((methyl-d3)amino)propan-1-one HCl]",most significant difference in half-life and intrinsic clearance,6.27
"Cl.[2H]C([2H])([2H])N[C@H](C)C(=O)c1ccc2c(c1)OCO2 [(R)-Methylone-d3 hydrochloride, (R)-1-(benzo[d][1,3]dioxol-5-yl)-2-((methyl-d3)amino)propan-1-one HCl]",differences in half-life and intrinsic clearance,
